Assay results published in ChEMBL document CHEMBL1201861, “Genomics of Drug Sensitity in Cancer screening data, Wellcome Trust Sanger Institute”.

Experiments:
Assay in all cases: cells
UO-31 = assay type: functional, cell-based; details: Homo sapiens
Description: SANGER: Inhibition of human U031 cell growth in a cell viability assay.

COR-L105 = assay type: functional, cell-based; details: Homo sapiens
Description: SANGER: Inhibition of human COR-L105 cell growth in a cell viability assay.

A673 = assay type: functional, cell-based; details: Homo sapiens
Description: SANGER: Inhibition of human A673 cell growth in a cell viability assay.

PA-1 = assay type: functional, cell-based; details: Homo sapiens
Description: SANGER: Inhibition of human PA-1 cell growth in a cell viability assay.

EW-22 = assay type: functional, cell-based; details: Homo sapiens
Description: SANGER: Inhibition of human EW-22 cell growth in a cell viability assay.

G-402 = assay type: functional, cell-based; details: Homo sapiens
Description: SANGER: Inhibition of human G-402 cell growth in a cell viability assay.

ACHN = assay type: functional, cell-based; details: Homo sapiens
Description: SANGER: Inhibition of human ACHN cell growth in a cell viability assay.

NCI-H2030 = assay type: functional, cell-based; details: Homo sapiens
Description: SANGER: Inhibition of human NCI-H2030 cell growth in a cell viability assay.

KYSE-70 cell line = assay type: functional, cell-based; details: Homo sapiens
Description: SANGER: Inhibition of human KYSE-70 cell growth in a cell viability assay.

BFTC-905 = assay type: functional, cell-based; details: Homo sapiens
Description: SANGER: Inhibition of human BFTC-905 cell growth in a cell viability assay.

SW13 = assay type: functional, cell-based; details: Homo sapiens
Description: SANGER: Inhibition of human SW13 cell growth in a cell viability assay.

KP-N-YN = assay type: functional, cell-based; details: Homo sapiens
Description: SANGER: Inhibition of human KP-N-YN cell growth in a cell viability assay.

NCI-H1755 = assay type: functional, cell-based; details: Homo sapiens
Description: SANGER: Inhibition of human NCI-H1755 cell growth in a cell viability assay.

KYSE-150 cell line = assay type: functional, cell-based; details: Homo sapiens
Description: SANGER: Inhibition of human KYSE-150 cell growth in a cell viability assay.

RMG-I = assay type: functional, cell-based; details: Homo sapiens
Description: SANGER: Inhibition of human RMG-I cell growth in a cell viability assay.

NCI-H2228 = assay type: functional, cell-based; details: Homo sapiens
Description: SANGER: Inhibition of human NCI-H2228 cell growth in a cell viability assay.

HOS = assay type: functional, cell-based; details: Homo sapiens
Description: SANGER: Inhibition of human HOS cell growth in a cell viability assay.

KYSE-140 = assay type: functional, cell-based; details: Homo sapiens
Description: SANGER: Inhibition of human KYSE-140 cell growth in a cell viability assay.

HCC 2998 = assay type: functional, cell-based; details: Homo sapiens
Description: SANGER: Inhibition of human HCC2998 cell growth in a cell viability assay.

CAL-51 = assay type: functional, cell-based; details: Homo sapiens
Description: SANGER: Inhibition of human CAL-51 cell growth in a cell viability assay.

UACC-893 = assay type: functional, cell-based; details: Homo sapiens
Description: SANGER: Inhibition of human UACC-893 cell growth in a cell viability assay.

MKN-7 = assay type: functional, cell-based; details: Homo sapiens
Description: SANGER: Inhibition of human MKN7 cell growth in a cell viability assay.

CAL-54 = assay type: functional, cell-based; details: Homo sapiens
Description: SANGER: Inhibition of human CAL-54 cell growth in a cell viability assay.

COLO-741 = assay type: functional, cell-based; details: Homo sapiens
Description: SANGER: Inhibition of human COLO-741 cell growth in a cell viability assay.

NCI-H661 = assay type: functional, cell-based; details: Homo sapiens
Description: SANGER: Inhibition of human NCI-H661 cell growth in a cell viability assay.

UMC-11 = assay type: functional, cell-based; details: Homo sapiens
Description: SANGER: Inhibition of human UMC-11 cell growth in a cell viability assay.

KYSE-270 = assay type: functional, cell-based; details: Homo sapiens
Description: SANGER: Inhibition of human KYSE-270 cell growth in a cell viability assay.

PANC-03-27 = assay type: functional, cell-based; details: Homo sapiens
Description: SANGER: Inhibition of human PANC-03-27 cell growth in a cell viability assay.

KOSC-2 = assay type: functional, cell-based; details: Homo sapiens
Description: SANGER: Inhibition of human KOSC-2 cell growth in a cell viability assay.

TCC-SUP = assay type: functional, cell-based; details: Homo sapiens
Description: SANGER: Inhibition of human TCCSUP cell growth in a cell viability assay.

T-24 = assay type: functional, cell-based; details: Homo sapiens
Description: SANGER: Inhibition of human T-24 cell growth in a cell viability assay.

BFTC-909 = assay type: functional, cell-based; details: Homo sapiens
Description: SANGER: Inhibition of human BFTC-909 cell growth in a cell viability assay.

U-118-MG = assay type: functional, cell-based; details: Homo sapiens
Description: SANGER: Inhibition of human U-118-MG cell growth in a cell viability assay.

CAL-12T = assay type: functional, cell-based, Homo sapiens; details: Homo sapiens, CAL-12T
Description: SANGER: Inhibition of human CAL-12T cell growth in a cell viability assay.

NCI-H2170 = assay type: functional, cell-based; details: Homo sapiens
Description: SANGER: Inhibition of human NCI-H2170 cell growth in a cell viability assay.

IGR-1 = assay type: functional, cell-based; details: Homo sapiens
Description: SANGER: Inhibition of human IGR-1 cell growth in a cell viability assay.

HuP-T4 = assay type: functional, cell-based; details: Homo sapiens
Description: SANGER: Inhibition of human HuP-T4 cell growth in a cell viability assay.

OE33 = assay type: functional, cell-based; details: Homo sapiens
Description: SANGER: Inhibition of human OE33 cell growth in a cell viability assay.

HEC-1 = assay type: functional, cell-based; details: Homo sapiens
Description: SANGER: Inhibition of human HEC-1 cell growth in a cell viability assay.

NCI-H1792 = assay type: functional, cell-based; details: Homo sapiens
Description: SANGER: Inhibition of human NCI-H1792 cell growth in a cell viability assay.

VMRC-RCZ = assay type: functional, cell-based; details: Homo sapiens
Description: SANGER: Inhibition of human VMRC-RCZ cell growth in a cell viability assay.

HPAF-II = assay type: functional, cell-based; details: Homo sapiens
Description: SANGER: Inhibition of human HPAF-II cell growth in a cell viability assay.

DMS-273 = assay type: functional, cell-based; details: Homo sapiens
Description: SANGER: Inhibition of human DMS-273 cell growth in a cell viability assay.

HT-29 = assay type: functional, cell-based; details: Homo sapiens
Description: SANGER: Inhibition of human HT-29 cell growth in a cell viability assay.

Huh-7 = assay type: functional, cell-based; details: Homo sapiens
Description: SANGER: Inhibition of human HuH-7 cell growth in a cell viability assay.

KU-19-19 = assay type: functional, cell-based; details: Homo sapiens
Description: SANGER: Inhibition of human KU-19-19 cell growth in a cell viability assay.

CP50-MEL-B = assay type: functional, cell-based; details: Homo sapiens
Description: SANGER: Inhibition of human CP50-MEL-B cell growth in a cell viability assay.

CHP-212 = assay type: functional, cell-based; details: Homo sapiens
Description: SANGER: Inhibition of human CHP-212 cell growth in a cell viability assay.

Calu-3 = assay type: functional, cell-based; details: Homo sapiens
Description: SANGER: Inhibition of human Calu-3 cell growth in a cell viability assay.

MHH-ES-1 = assay type: functional, cell-based; details: Homo sapiens
Description: SANGER: Inhibition of human MHH-ES-1 cell growth in a cell viability assay.

SJRH30 = assay type: functional, cell-based; details: Homo sapiens
Description: SANGER: Inhibition of human SJRH30 cell growth in a cell viability assay.

## COc1cc(Nc2c(C#N)cnc3cc(OCCCN4CCN(C)CC4)c(OC)cc23)c(Cl)cc1Cl [BOSUTINIB]
UO-31
  IC50: > 2 µM
COR-L105
  IC50: 1 µM
A673
  IC50: > 2 µM
PA-1
  IC50: > 2 µM
EW-22
  IC50: > 2 µM
G-402
  IC50: > 2 µM
ACHN
  IC50: 0.541 µM
NCI-H2030
  IC50: > 2 µM
KYSE-70 cell line
  IC50: > 2 µM
BFTC-905
  IC50: > 2 µM
SW13
  IC50: 0.738 µM
KP-N-YN
  IC50: > 2 µM
NCI-H1755
  IC50: > 2 µM
KYSE-150 cell line
  IC50: > 2 µM
RMG-I
  IC50: > 2 µM
NCI-H2228
  IC50: > 2 µM
HOS
  IC50: > 2 µM
KYSE-140
  IC50: 1.76 µM
HCC 2998
  IC50: > 2 µM
CAL-51
  IC50: > 2 µM
UACC-893
  IC50: > 2 µM
MKN-7
  IC50: > 2 µM
CAL-54
  IC50: 1.66 µM
COLO-741
  IC50: > 2 µM
NCI-H661
  IC50: > 2 µM
UMC-11
  IC50: > 2 µM
KYSE-270
  IC50: > 2 µM
PANC-03-27
  IC50: > 2 µM
KOSC-2
  IC50: 1.32 µM
TCC-SUP
  IC50: > 2 µM
T-24
  IC50: > 2 µM
BFTC-909
  IC50: > 2 µM
U-118-MG
  IC50: > 2 µM
CAL-12T
  IC50: > 2 µM
NCI-H2170
  IC50: > 2 µM
IGR-1
  IC50: > 2 µM
HuP-T4
  IC50: > 2 µM
OE33
  IC50: > 2 µM
HEC-1
  IC50: > 2 µM
NCI-H1792
  IC50: > 2 µM
VMRC-RCZ
  IC50: > 2 µM
HPAF-II
  IC50: > 2 µM
DMS-273
  IC50: > 2 µM
HT-29
  IC50: > 2 µM
Huh-7
  IC50: > 2 µM
KU-19-19
  IC50: > 2 µM
CP50-MEL-B
  IC50: > 2 µM
CHP-212
  IC50: > 2 µM
Calu-3
  IC50: > 2 µM
MHH-ES-1
  IC50: > 2 µM

## CC(=O)c1c(C)c2cnc(Nc3ccc(N4CCNCC4)cn3)nc2n(C2CCCC2)c1=O [PALBOCICLIB]
COR-L105
  IC50: > 4 µM
A673
  IC50: > 4 µM
PA-1
  IC50: 0.51 µM
EW-22
  IC50: > 4 µM
G-402
  IC50: > 4 µM
SJRH30
  IC50: > 4 µM
KYSE-70 cell line
  IC50: > 4 µM
BFTC-905
  IC50: 1.24 µM
KP-N-YN
  IC50: > 4 µM
NCI-H1755
  IC50: > 4 µM
KYSE-150 cell line
  IC50: 1 µM
RMG-I
  IC50: > 4 µM
NCI-H2228
  IC50: > 4 µM
HOS
  IC50: 1.35 µM
KYSE-140
  IC50: > 4 µM
HCC 2998
  IC50: > 4 µM
CAL-51
  IC50: 1.75 µM
MKN-7
  IC50: > 4 µM
CAL-54
  IC50: 2.2 µM
COLO-741
  IC50: 1.32 µM
NCI-H661
  IC50: > 4 µM
UMC-11
  IC50: > 4 µM
KYSE-270
  IC50: > 4 µM
PANC-03-27
  IC50: > 4 µM
KOSC-2
  IC50: 0.467 µM
TCC-SUP
  IC50: > 4 µM
T-24
  IC50: 0.779 µM
BFTC-909
  IC50: > 4 µM
U-118-MG
  IC50: > 4 µM
CAL-12T
  IC50: > 4 µM
NCI-H2170
  IC50: > 4 µM
IGR-1
  IC50: > 4 µM
HuP-T4
  IC50: > 4 µM
OE33
  IC50: > 4 µM
HEC-1
  IC50: > 4 µM
NCI-H1792
  IC50: > 4 µM
VMRC-RCZ
  IC50: 3.36 µM
HPAF-II
  IC50: > 4 µM
DMS-273
  IC50: > 4 µM
HT-29
  IC50: > 4 µM
Huh-7
  IC50: > 4 µM
KU-19-19
  IC50: > 4 µM
CP50-MEL-B
  IC50: > 4 µM
CHP-212
  IC50: 0.594 µM
Calu-3
  IC50: > 4 µM
MHH-ES-1
  IC50: 1.18 µM

## C[C@]1(c2nc3c(C(N)=O)cccc3[nH]2)CCCN1 [VELIPARIB]
UO-31
  IC50: > 5 µM
COR-L105
  IC50: > 5 µM
A673
  IC50: > 5 µM
PA-1
  IC50: > 5 µM
EW-22
  IC50: > 5 µM
G-402
  IC50: > 5 µM
ACHN
  IC50: > 5 µM
NCI-H2030
  IC50: > 5 µM
KYSE-70 cell line
  IC50: > 5 µM
BFTC-905
  IC50: > 5 µM
SW13
  IC50: > 5 µM
KP-N-YN
  IC50: > 5 µM
NCI-H1755
  IC50: > 5 µM
KYSE-150 cell line
  IC50: > 5 µM
RMG-I
  IC50: > 5 µM
NCI-H2228
  IC50: > 5 µM
HOS
  IC50: > 5 µM
KYSE-140
  IC50: > 5 µM
HCC 2998
  IC50: > 5 µM
CAL-51
  IC50: > 5 µM
UACC-893
  IC50: > 5 µM
MKN-7
  IC50: > 5 µM
CAL-54
  IC50: > 5 µM
COLO-741
  IC50: > 5 µM
NCI-H661
  IC50: > 5 µM
UMC-11
  IC50: > 5 µM
KYSE-270
  IC50: > 5 µM
PANC-03-27
  IC50: > 5 µM
KOSC-2
  IC50: > 5 µM
TCC-SUP
  IC50: > 5 µM
T-24
  IC50: > 5 µM
BFTC-909
  IC50: > 5 µM
U-118-MG
  IC50: > 5 µM
CAL-12T
  IC50: > 5 µM
NCI-H2170
  IC50: > 5 µM
IGR-1
  IC50: > 5 µM
HuP-T4
  IC50: > 5 µM
OE33
  IC50: > 5 µM
HEC-1
  IC50: > 5 µM
NCI-H1792
  IC50: > 5 µM
VMRC-RCZ
  IC50: > 5 µM
HPAF-II
  IC50: > 5 µM
DMS-273
  IC50: > 5 µM
HT-29
  IC50: > 5 µM
Huh-7
  IC50: > 5 µM
KU-19-19
  IC50: > 5 µM
CP50-MEL-B
  IC50: > 5 µM
CHP-212
  IC50: > 5 µM
Calu-3
  IC50: > 5 µM
MHH-ES-1
  IC50: > 5 µM
